# Residues, ends and D or L forms follow the SMILES beside them. *: point of attachment. Cbz = O=C(OCc1ccccc1)*
# What was measured:
# [1] = test system: MITF levels in MKN45 cells; assay: Immunoblotting of MITF in METTL10-knockdown cells treated with MG132; type: cell-based; details: MG132 5 µM for 5 hours
# Protocol: (§1) Protein extraction from tissues or cells was performed by lysis buffer (20 mM Tris‐HCl (pH 7.5), 150 mM NaCl, 1 mM EDTA, 1 mM EGTA, 2.5 mM sodium pyrophosphate, 1 mM β‐glycerolphosphate, 1% Triton X‐100) supplemented with 1% phenylmethylsulfonyl fluoride (PMSF; Solarbio, P0100) and protease inhibitor cocktail (Apexbio, K1007) and lysed at 4 °C for 60 min, followed by centrifugation at 12000 g for 15 min at 4 °C. For Immunoblotting, the protein concentration was determined using the Pierce BCA Protein Assay Kit (Thermo Fisher Scientific, A55864). The protein samples were denatured by boiling in SDS‐PAGE loading buffer. For immunoprecipitation, antibodies were incubated with Dynabeads Protein G (Thermo, 10004D) at 4 °C for 4 h. The supernatant was then incubated with magnetic beads conjugated with antibodies or anti‐FLAG‐M2 magnetic beads (Sigma–Aldrich, M8823) at 4 °C overnight. Following incubation, the magnetic beads were washed three times with lysis buffer and then boiled in SDS‐PAGE loading buffer. The proteins were separated by sodium dodecyl sulfate polyacrylamide gel electrophoresis (SDS‐PAGE) with One‐Step PAGE Gel Fast Preparation Kit (Vazyme), and then transferred to the PVDF Membrane (Bio‐Rad). After blocking with a protein‐free rapid blocking buffer (Epizyme, PS108P) for 15 min, the membranes were incubated with primary antibodies at 4 °C overnight. […]
# [2] = test system: MITF protein levels in HA-PIAS3-overexpressing MKN45 cells; assay: Immunoblotting of MITF in PIAS3-overexpressing cells treated with MG132; type: cell-based; details: MG132 5 µM for 5 h
# Protocol: as §1
smiles,measurement,setting,value
CC(C)C[C@@H](C=O)NC(=O)[C@H](CC(C)C)NC(=O)[C@H](CC(C)C)NC(=O)OCc1ccccc1 [MG132] (Cbz-Leu-Leu-Leu-aldehyde),Effect on decrease in MITF levels caused by knockdown of METTL10,[1],completely eliminated the decrease in MITF levels
same,PIAS3-mediated degradation of MITF,[2],inhibited

# Reference: publication PMC12752606, “METTL10‐Mediated PIAS3 Methylation Links Purine Metabolism to Gastric Cancer Progression” (Advanced Science, 2025)
